Measured values as given in the Deep4Chem optical property database.
Values belong to the molecule of their own block, whether it stands above or below them.

Assay: solvent given as SMILES

- emission maximum (in CC#N): 624 nm
- emission maximum (in CCCCCC): 587 nm
- emission maximum (in CO): 633 nm
SMILES: COc1ccc(N2c3cc(OC)ccc3N=c3cc4c(cc32)=Nc2cc(C(C)(C)C)cc(C(C)(C)C)c2O4)cc1

- emission maximum (in ClC(Cl)Cl): 618 nm
SMILES: N#CC(C#N)=Cc1ccc(-c2ccc(N(c3ccccc3)c3ccccc3)cc2)o1

- emission maximum (in C1CCCCC1): 373 nm
SMILES: CCn1c2ccccc2c2ccc(C#N)cc21

- emission maximum (in ClCCl): 510 nm
SMILES: Cn1cc(-c2nc3ccccc3nc2C#Cc2ccccc2)c2ccccc21

- emission maximum (in CCO): 567 nm
- emission maximum (in ClCCl): 565 nm
- emission maximum (in O): 585 nm
SMILES: O=Cc1ccc(-c2cccc(-c3nc4ccccc4s3)c2O)o1

- emission maximum (in C1CCOC1): 495 nm
- emission maximum (in CC#N): 522 nm
- emission maximum (in CCO): 504 nm
- emission maximum (in CCOC(C)=O): 495 nm
- emission maximum (in CN(C)C=O): 521 nm
- emission maximum (in ClCCl): 513 nm
- emission maximum (in c1ccccc1): 468 nm
SMILES: COc1ccc([C@@H]2C[C@](O)(c3ccccn3)C[C@](O)(c3ccccn3)[C@H]2C(=O)c2ccc(N(c3ccccc3)c3ccccc3)cc2)cc1

- emission maximum (in ClC(Cl)Cl): 416 nm
SMILES: CCc1cc(CC)cc(-n2c3ccccc3c3cc4c(cc32)c2ccccc2n4-c2cc(CC)cc(CC)c2)c1

- emission maximum (in C1CCOC1): 464.54 nm
- emission maximum (in CC#N): 465.9 nm
- emission maximum (in CCCCCC): 456 nm
SMILES: Cc1cc(C)c(B(c2cc3c4c(c(B(c5c(C)cc(C)cc5C)c5c(C)cc(C)cc5C)cc5c4c2CCC5)CCC3)c2c(C)cc(C)cc2C)c(C)c1

- emission maximum (in C1CCOC1): 514 nm
- emission maximum (in ClC(Cl)Cl): 577 nm
- emission maximum (in ClCCl): 593 nm
SMILES: COc1cc2cc(OC)c(C#Cc3ccc([N+](=O)[O-])cc3)cc2cc1C#Cc1ccc([N+](=O)[O-])cc1

- emission maximum (in CC#N): 337 nm
- emission maximum (in CCCCCC): 326 nm
SMILES: CCN(CC)c1ccc(-n2cccc2)cc1

- emission maximum (in ClC(Cl)Cl): 699 nm
SMILES: CN1C(=CC2=C([O-])C(=CC3=[N+](C)c4ccccc4C3(C)C)C2=C2C(=O)c3ccccc3C2=O)C(C)(C)c2ccccc21

- emission maximum (in ClC(Cl)Cl): 484 nm
SMILES: CCCCCCN1C(=O)c2cccc3c(-c4scc5c4OCCO5)ccc(c23)C1=O

- emission maximum (in C1COCCO1): 428 nm
SMILES: c1ccc(-c2nc(-c3ccc(-c4ccc(-c5nc(-c6ccccc6)c(-c6ccccc6)o5)cc4)cc3)oc2-c2ccccc2)cc1

- emission maximum (in CCO): 441 nm
SMILES: CN(C)c1cc2c(cc1F)c(=O)c1cc(F)c(N(C)C)cc1n2C

- emission maximum (in ClCCl): 401 nm
SMILES: CC(C)(C)c1cc(-c2ccc3c(-c4cc(C(C)(C)C)cc(C(C)(C)C)c4)cc4c5cc(-c6cc(C(C)(C)C)cc(C(C)(C)C)c6)ccc5c(-c5cc(C(C)(C)C)cc(C(C)(C)C)c5)cc4c3c2)cc(C(C)(C)C)c1

- emission maximum (in ClCCl): 413 nm
SMILES: CCCCc1cc2c3c(c1)-c1ccccc1B(c1c(C)cc(C)cc1C)N3B(c1c(C)cc(C)cc1C)c1ccccc1-2

Further lines, the molecule ahead of its results:

SMILES: CC1(C)C(/C=C/C=C/C=C/C=C2\N(CCCCS(=O)(=O)[O-])c3ccc4ccccc4c3C2(C)C)=[N+](CCCCS(=O)(=O)[O-])c2ccc3ccccc3c21
- emission maximum (in O): 820 nm

SMILES: Cc1cccc2nc3c(=O)[nH]c(=O)[nH]c3nc12
- emission maximum (in C1COCCO1): 437 nm
- emission maximum (in CC#N): 449 nm
- emission maximum (in CCO): 465 nm
- emission maximum (in CO): 469 nm
- emission maximum (in ClCCCl): 450 nm
- emission maximum (in O): 495 nm

SMILES: Clc1ccccc1N1c2sc3ccccc3c2Sc2c1sc1ccccc21
- emission maximum (in ClCCl): 541 nm

SMILES: CC(C)c1cc(C(C)C)c(B2c3cc(N4c5ccccc5C(C)(C)c5ccccc54)ccc3N(c3ccccc3)c3ccc(N4c5ccccc5C(C)(C)c5ccccc54)cc32)c(C(C)C)c1
- emission maximum (in C1CCOC1): 485.71 nm
- emission maximum (in CCOC(C)=O): 481.97 nm
- emission maximum (in Cc1ccccc1): 469.39 nm
- emission maximum (in ClCCl): 494.56 nm
- emission maximum (in c1cc(-c2cccc(-n3c4ccccc4c4ccccc43)c2)cc(-n2c3ccccc3c3ccccc32)c1): 469 nm

SMILES: c1ccc([Si]2(c3ccccc3)c3ccccc3-c3cc4c(cc32)-c2ccccc2[Si]4(c2ccccc2)c2ccccc2)cc1
- emission maximum (in ClCCl): 395 nm

SMILES: COc1cccc(OC)c1-c1c2ccc(=[N+]3CCNCC3)cc-2oc2cc(N3CCNCC3)ccc12
- emission maximum (in CCO): 582 nm
- emission maximum (in O): 568 nm

SMILES: CN(C)c1ccc(-c2cc3c(ccc4c([N+](=O)[O-])cccc43)c(=O)o2)cc1
- emission maximum (in CC(C)=O): 530 nm
- emission maximum (in CCOC(C)=O): 624 nm
- emission maximum (in CN(C)C=O): 546 nm
- emission maximum (in CO): 548 nm
- emission maximum (in ClC(Cl)Cl): 634 nm

SMILES: CC(C)[Si](C#Cc1c2nsnc2c(C#C[Si](C(C)C)(C(C)C)C(C)C)c2nc3c(nc12)C1c2ccccc2C3c2ccccc21)(C(C)C)C(C)C
- emission maximum (in CCCCCC): 526 nm

SMILES: COc1cc2c(cc1-c1ccc(C#N)cc1)Cc1c3c(c4c(c1-2)-c1cc(OC)c(-c2ccc(C#N)cc2)cc1C4)C(=O)N(CCC(C)C)C3=O
- emission maximum (in C1CCOC1): 460 nm

SMILES: Cc1ccc(-c2ccccc2)cc1
- emission maximum (in C1CCCCC1): 333.89 nm

SMILES: O=C1c2ccccc2S(=O)(=O)c2ccc(-n3c4ccccc4c4ccccc43)cc21
- emission maximum (in C1CCOC1): 576 nm
- emission maximum (in CCCCCC): 485 nm
- emission maximum (in Cc1ccccc1): 535.5 nm
- emission maximum (in ClC(Cl)Cl): 595.5 nm
- emission maximum (in ClCCl): 609.5 nm

SMILES: COc1ccc2c(C#N)cc3ccc4cc(C#N)c5ccc(OC)cc5c4c3c2c1
- emission maximum (in ClC(Cl)Cl): 426 nm

SMILES: CCCCCCCCn1c2ccc(/C=C/c3ccc(N(c4ccccc4)c4ccccc4)cc3)cc2c2cc3c(cc21)c1cc(/C=C/c2ccc(N(c4ccccc4)c4ccccc4)cc2)ccc1n3CCCCCCCC
- emission maximum (in Cc1ccccc1): 453 nm

SMILES: Cc1cc(=O)oc2cc3c(cc12)c1c2ccccc2c2ccccc2c1c1c2ccccc2c2ccccc2c31
- emission maximum (in ClC(Cl)Cl): 536 nm

SMILES: COC(C)CC1=N/C(=C\c2cccc(N(C)C)c2)C(=O)N1C (configuration not stated)
- emission maximum (in C1CCOC1): 569 nm
- emission maximum (in CC#N): 632 nm
- emission maximum (in CCCCCC): 495 nm

SMILES: O=C1c2ccccc2-c2nc3ccccc3n21
- emission maximum (in ClCCl): 519 nm

SMILES: C1=Cc2ccccc2C(=Cc2ccc(-c3ccc(C=C4c5ccccc5-c5ccccc54)cc3)cc2)c2ccccc21
- emission maximum (in C1CCOC1): 450 nm

SMILES: N#Cc1nc(N(Cc2ccccc2I)Cc2ccccc2I)c(C#N)nc1N(Cc1ccccc1I)Cc1ccccc1I
- emission maximum (in ClC(Cl)Cl): 567 nm

SMILES: N#CC(C#N)=C(c1ccc(N(c2ccccc2)c2ccccc2)cc1)c1ccc(N(c2ccccc2)c2ccccc2)cc1
- emission maximum (in C1CCCCC1): 413.3 nm
- emission maximum (in CC(C)=O): 505.58 nm
- emission maximum (in CN(C)C=O): 515.24 nm
- emission maximum (in Cc1ccccc1): 439.48 nm
- emission maximum (in ClC(Cl)Cl): 491.2 nm

SMILES: CN(C)c1ccc(C2=C3C=C(c4ccc(C=C(C#N)C#N)cc4)S[C@]34c3ccccc3[C@H]2c2ccccc24)cc1
- emission maximum (in ClCCl): 748 nm

SMILES: CCCCOc1ccc(-c2cc3c(o2)c(-c2ccc(OCCCC)cc2)c2n3[B-](F)(F)[N+]3=Cc4c(-c5ccc(OCCCC)cc5)c5oc(-c6ccc(OCCCC)cc6)cc5n4[B-](F)(F)[N+]3=C2)cc1
- emission maximum (in C1CCOC1): 659 nm
- emission maximum (in CN(C)C=O): 667 nm
- emission maximum (in CS(C)=O): 672 nm
- emission maximum (in Cc1ccccc1): 660 nm
- emission maximum (in ClC(Cl)Cl): 660 nm
- emission maximum (in ClCCl): 661 nm

SMILES: O=C(c1ccc2c3c(cccc13)-c1cccc3c1C2CC=C3)c1c(CCc2ccccc2)c2ccc3cccc4c5cccc6ccc1c(c65)c2c34 (configuration not stated)
- emission maximum (in ClCCl): 527 nm

SMILES: N#Cc1c(-n2c3ccccc3c3ccccc32)c(-n2c3ccccc3c3ccccc32)c(C#N)c(-n2c3ccccc3c3ccccc32)c1-n1c2ccccc2c2ccccc21
- emission maximum (in Cc1ccccc1): 535 nm

SMILES: COc1ccc(-c2c3ccccc3c3n2[B-](F)(F)[N+]2=Cc4c5ccccc5c(-c5ccc(OC)cc5)n4[B-](F)(F)[N+]2=C3)cc1
- emission maximum (in CC#N): 606 nm
- emission maximum (in CCCCCC): 607 nm
- emission maximum (in CN(C)C=O): 613 nm
- emission maximum (in Cc1ccccc1): 616 nm
- emission maximum (in ClCCl): 614 nm

SMILES: CCOC(=O)CCCCCn1c2ccc(N)cc2c(=O)c2cc(N)ccc21
- emission maximum (in O): 547 nm

SMILES: N#Cc1nc(N(Cc2ccccc2F)Cc2ccccc2F)c(C#N)nc1N(Cc1ccccc1F)Cc1ccccc1F
- emission maximum (in ClC(Cl)Cl): 570 nm

SMILES: Cc1c2ccc(=[N+]3CCCCC3)cc-2oc2cc(N3CCCCC3)ccc12
- emission maximum (in ClCCl): 570 nm

SMILES: CCCCCCOc1cc(N(CC)CC)ccc1/C=C(\C#N)c1ccc(/C=C/C(=C(C#N)C#N)c2ccc3c(c2)c2ccccc2n3CC)s1
- emission maximum (in ClCCl): 742 nm

SMILES: CCN(CC)c1ccc(-c2nc3c4ccccc4n(C)c3nc2-c2ccc([B-](F)(c3c(C)cc(C)cc3C)c3c(C)cc(C)cc3C)cc2)cc1
- emission maximum (in C1CCOC1): 508.44 nm

SMILES: CCOC(=O)C1=CN(c2ccccc2)C=C(C(=O)OCC)C1
- emission maximum (in C1CCOC1): 426 nm
- emission maximum (in CO): 441 nm

SMILES: Cc1ccc(-c2cc(-c3ccccc3Cl)c3c(N)nc(N4CCCC4)c(C#N)c3n2)cc1
- emission maximum (in CC#N): 526 nm
- emission maximum (in CC(C)=O): 522 nm
- emission maximum (in CC(C)O): 516 nm
- emission maximum (in CO): 525 nm
- emission maximum (in ClC(Cl)Cl): 508 nm
- emission maximum (in ClCCl): 514 nm
- emission maximum (in c1ccccc1): 512 nm

SMILES: CN1CCN(c2ccc3c4c(cccc24)C(=O)c2ccccc2-3)CC1
- emission maximum (in C1CCCCC1): 533 nm
- emission maximum (in C1CCOC1): 593 nm
- emission maximum (in C1COCCO1): 584 nm
- emission maximum (in CC1COC(=O)O1): 619 nm
- emission maximum (in CC#N): 619 nm
- emission maximum (in CC(C)=O): 615 nm
- emission maximum (in CCCCCCCCO): 626 nm
- emission maximum (in CCCCCO): 635 nm
- emission maximum (in CCCCO): 632 nm
- emission maximum (in CCCO): 637 nm
- emission maximum (in CCO): 640 nm
- emission maximum (in CCOC(C)=O): 595 nm
- emission maximum (in CN(C)C=O): 621 nm
- emission maximum (in CO): 645 nm
- emission maximum (in CS(C)=O): 624 nm
- emission maximum (in Cc1ccccc1): 569 nm
- emission maximum (in ClC(Cl)Cl): 601 nm

SMILES: O=c1cc2c(S(=O)(=O)O)c(O)c3cccc4ccc(o1)c2c43
- emission maximum (in CC1CCCO1): 472 nm

SMILES: CCCCCCN1C(=O)c2cccc3cc(/N=C\c4cn(C)c5ccccc45)cc(c23)C1=O
- emission maximum (in ClC(Cl)Cl): 500 nm

SMILES: CC(=O)c1ccc(-c2cnc3nn4ccccc4c3c2)cc1
- emission maximum (in C1CCOC1): 420 nm

SMILES: CC1(C)CC(/N=C/c2ccc3ccc4cccc5ccc2c3c45)CC(C)(C)N1[O]
- emission maximum (in C1CCCCC1): 385 nm
- emission maximum (in CC#N): 375 nm
- emission maximum (in CO): 400 nm
- emission maximum (in ClC(Cl)Cl): 375 nm

SMILES: Cc1cc2nc3[nH]c(=O)[nH]c(=O)c3nc2cc1C
- emission maximum (in CC#N): 437 nm
